Experimental data taken from PubChem BioAssay AID306 (DTP/NCI, 2004).
“And” between values parts separate entries of the source, which are not always exact repeats. Identical values can stand only once. Inconclusive results and toxic doses are left out.

Tested on: BDF1 mice, L1210 Methyl-GAG-resistant leukemia, survival T/C
Experiment: NCI In Vivo Anticancer Drug Screen. Data for tumor model L1210 Leukemia resistant to Methyl-GAG; NSC 32946 (subcutaneous) in B6D2F1 (BDF1) mice
Conditions: endpoint: mean survival time, higher = longer survival
Procedure: The antitumor activity of compounds was measured in mice bearing transplantable tumors. Survival or tumor size were measured and the results are expressed as the measurement made in the treated group (T) divided by the measurement made in the vehicle treated control group (C). The tumor model used in this assay is L1210 Leukemia resistant to Methyl-GAG; NSC 32946 (subcutaneous) in B6D2F1 (BDF1) mice

[1] = dose: 12.5 mg/kg/injection, schedule: Q01DX Z (ip), vehicle: saline
[2] = dose: 25.0 mg/kg/injection, schedule: Q01DX Z (ip), vehicle: saline
[3] = dose: 0.5 mg/kg/injection, schedule: Q01DX Z (ip), vehicle: saline

For `NC(Cc1ccc(N(CCCl)CCCl)cc1)C(=O)O` (centres undefined), the T/C (dose: 1.25 mg/kg/injection, schedule: Q01DX Z (ip), vehicle: carboxymethylcellulose (CMC)) was 104 % of control, the T/C (dose: 2.5 mg/kg/injection, schedule: Q01DX Z (ip), vehicle: carboxymethylcellulose (CMC)) was 106 % of control and the T/C (dose: 3.2 mg/kg/injection, schedule: Q01DX Z (ip), vehicle: saline) was 94 % of control. For the same compound, the T/C (dose: 5.0 mg/kg/injection, schedule: Q01DX Z (ip), vehicle: carboxymethylcellulose (CMC)) was 106 % of control, the T/C (dose: 6.3 mg/kg/injection, schedule: Q01DX Z (ip), vehicle: saline) was 118 % of control and the T/C (dose: 10.0 mg/kg/injection, schedule: Q01DX Z (ip), vehicle: carboxymethylcellulose (CMC)) was 120 % of control. The T/C [1] was 113 % of control, the T/C (dose: 20.0 mg/kg/injection, schedule: Q01DX Z (ip), vehicle: carboxymethylcellulose (CMC)) was 98 % of control and the T/C [2] was 94 % of control.

`Oc1cc(CN(CCCl)CCCl)c(O)cc1CN(CCCl)CCCl` was tested, and the T/C (dose: 1.88 mg/kg/injection, schedule: Q01DX Z (sc), vehicle: steriod suspending solution) was 103 % of control, the T/C (dose: 3.75 mg/kg/injection, schedule: Q01DX Z (sc), vehicle: steriod suspending solution) was 111 % of control and the T/C (dose: 7.5 mg/kg/injection, schedule: Q01DX Z (sc), vehicle: steriod suspending solution) was 115 % of control.

In the case of `N#Cc1cn(C2OC(CO)C(O)C2O)c2ncnc(N)c12` (centres undefined), the T/C (dose: 63.0 micrograms/kg/injection, schedule: Q01DX Z (ip), vehicle: carboxymethylcellulose (CMC)) was 96 % of control, the T/C (dose: 125.0 micrograms/kg/injection, schedule: Q01DX Z (ip), vehicle: carboxymethylcellulose (CMC)) was 102 % of control and the T/C (dose: 250.0 micrograms/kg/injection, schedule: Q01DX Z (ip), vehicle: carboxymethylcellulose (CMC)) was 115 % of control. For the same compound, the T/C (dose: 500.0 micrograms/kg/injection, schedule: Q01DX Z (ip), vehicle: carboxymethylcellulose (CMC)) was 93 % of control.

With `N=[N+]=CC(=O)OCC(N)C(=O)O` (centres undefined) the T/C (dose: 1.56 mg/kg/injection, schedule: Q01DX Z (ip), vehicle: saline) was 104 % of control, the T/C (dose: 3.12 mg/kg/injection, schedule: Q01DX Z (ip), vehicle: saline) was 104 % of control and the T/C (dose: 4.7 mg/kg/injection, schedule: Q01DX Z (ip), vehicle: saline) was 100 % of control. For the same compound, the T/C [1] was 156 % of control and 150 % of control, the T/C (dose: 18.8 mg/kg/injection, schedule: Q01DX Z (ip), vehicle: saline) was 104 % of control and the T/C [2] was 116 % of control.

With `O=C(Nc1ccc(NC2=NCCN2)cc1)c1ccc(C(=O)Nc2ccc(NC3=NCCN3)cc2)cc1` the T/C [3] was 101 % of control, the T/C (dose: 1.0 mg/kg/injection, schedule: Q01DX Z (ip), vehicle: saline) was 100 % of control and the T/C (dose: 2.0 mg/kg/injection, schedule: Q01DX Z (ip), vehicle: saline) was 100 % of control. The T/C (dose: 8.0 mg/kg/injection, schedule: Q01DX Z (ip), vehicle: saline) was 196 % of control, the T/C (dose: 32.0 mg/kg/injection, schedule: Q01DX Z (ip), vehicle: saline) was 113 % of control and the T/C (dose: 64.0 mg/kg/injection, schedule: Q01DX Z (ip), vehicle: saline) was 95 % of control.

`Clc1ncnc2nc[nH]c12` was tested, and the T/C (dose: 31.25 mg/kg/injection, schedule: Q01DX Z (ip), vehicle: carboxymethylcellulose (CMC)) was 100 % of control, the T/C (dose: 62.5 mg/kg/injection, schedule: Q01DX Z (ip), vehicle: carboxymethylcellulose (CMC)) was 90 % of control and the T/C (dose: 125.0 mg/kg/injection, schedule: Q01DX Z (ip), vehicle: carboxymethylcellulose (CMC)) was 121 % of control.

`N=C(N)c1ccc(Nc2ccc(C(=N)N)cc2)cc1` was tested, and the T/C (dose: 3.1 mg/kg/injection, schedule: Q01DX Z (ip), vehicle: methylcellulose (MC)) was 98 % of control and 102 % of control, the T/C (dose: 6.25 mg/kg/injection, schedule: Q01DX Z (ip), vehicle: methylcellulose (MC)) was 107 % of control and the T/C (dose: 6.3 mg/kg/injection, schedule: Q01DX Z (ip), vehicle: methylcellulose (MC)) was 93 % of control. For the same compound, the T/C (dose: 12.5 mg/kg/injection, schedule: Q01DX Z (ip), vehicle: methylcellulose (MC)) was 97 % of control.

For `C[C@]12CC[C@H](OC3OC(CO)C(O)C(O)C3O)C[C@H]1CC[C@@H]1[C@@H]2CC[C@]2(C)[C@@H](C3=CCOC3=O)CC[C@]12O` (some centres undefined), the T/C (dose: 0.06 mg/kg/injection, schedule: Q01DX Z (ip), vehicle: saline) was 94 % of control, the T/C (dose: 0.12 mg/kg/injection, schedule: Q01DX Z (ip), vehicle: saline) was 92 % of control and the T/C (dose: 0.25 mg/kg/injection, schedule: Q01DX Z (ip), vehicle: saline) was 91 % of control. For the same compound, the T/C [3] was 91 % of control, the T/C (dose: 4.0 mg/kg/injection, schedule: Q01DX Z (ip), vehicle: saline) was 90 % of control and the T/C (dose: 16.0 micrograms/kg/injection, schedule: Q01DX Z (ip), vehicle: saline) was 97 % of control. For the same compound, the T/C (dose: 32.0 micrograms/kg/injection, schedule: Q01DX Z (ip), vehicle: saline) was 102 % of control, the T/C (dose: 1000.0 micrograms/kg/injection, schedule: Q01DX Z (ip), vehicle: saline) was 107 % of control and the T/C (dose: 2000.0 micrograms/kg/injection, schedule: Q01DX Z (ip), vehicle: saline) was 105 % of control.
